From US10077261B2, “Imidazolin-5-one derivative useful as FASN inhibitors for the treatment of cancer” (Janssen Pharmaceutica NV, priority 2012, dated 2018) come the findings set out here.

The structures appear in SMILES notation.

For experiment [1], the system named is LNCaP-Vancouver prostate cells. The experiment is described as follows: In vitro LNCaP Vancouver prostate cell proliferation assay in lipid reduced medium. It is filed as cell-based. The conditions noted are these: read-out: pIC50 LNCaP_Vancouver prostate cell (converted).
In experiment [2] the test system is PC-3M-Luc-C6 prostate cells. The experiment is described as follows: In vitro PC-3M-Luc-C6 prostate cell proliferation assay in lipid reduced medium. It is filed as cell-based. The conditions noted are these: 96 h, read-out: pIC50 PC-3M-Luc-C6 prostate cell (converted). The protocol: PC-3M-Luc-C6 prostate cells were obtained from Xenogen Corporation. Cells were maintained in MEM supplemented with 10% Fetal Calf Serum (FCS, Hyclone), 2 mM glutamine, 1 mM sodium pyruvate, 1% BME vitamins (available from for example, Sigma Aldrich), 0.1 mM non Essential Amino Acid and 50 μg/ml Gentamicin. The cells were passaged twice a week.
The next day 10 μl test compound/DMSO diluted in medium was added (3E-5M, 1E-5M, 3E-6M, 1E-6M, 3E-7M, 1E-7M, 3E-8M, 1E-8M final concentration). Compounds were tested in duplicate. After 96 h incubation at 37° C., 5% CO2 25 μl ATP-glow mix was added. The plate was incubated for 30 min at 37° C. and luminescence was measured with the Envision.
Analysis: Determination of pIC50 Values
pIC50 values were calculated as follows.
where mLC and mHC are the means of the low control wells and high control wells on the plate, after manual exclusion of outliers. The relation between the % Controlmin values and concentration was fitted to a 4-parameter logistic curve using a non-linear least squares regression method to determine the pIC50 value. Outlying data points were excluded manually to get a correct fit. The pIC50 corresponds to −log 10(IC50), if the IC50 is expressed in molar units (http://www.ncbi.nlm.nih.gov/books/NBK91994). The IC50 parameter was always determined by non-linear regression, but one or more of the other parameters may have been held fixed on a relevant input value, such as 0 for the bottom values.

Experiment [3] deals with A2780 ovarian cells. The experiment is described as follows: A2780 ovarian cell proliferation assay in lipid reduced medium, without palmitate (MTT). The conditions noted are these: Homo sapiens, A2780, 96 h; read-out: pIC50 A2780 Ovarian Cell, Without Palmitate (converted). It is filed as cell-based.
Experiment [4] concerns A2780 ovarian cells. The experiment is described as follows: A2780 ovarian cell proliferation assay in lipid reduced medium, with palmitate (MTT). It is filed as cell-based. To be noted: Homo sapiens, A2780, 96 h; read-out: pIC50 A2780 Ovarian Cell, With Palmitate (converted). In short, it runs like this: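 Seeded cells were switched next day to lipid-reduced serum, exposed to compound and 25 μM palmitate complexed with fatty-acid-free BSA, and incubated 96 h. Proliferation was then determined by MTT absorbance at 544 nm, with a best-fit curve of signal against concentration.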

Experiment [5] deals with T1, hFASN enzyme (full length) (Homo sapiens, UniProt P49327).
T1 construct: 10 μL hFASN enzyme (full length, 300 ng, purified in house); made in house
T1 sequence (P49327 whole entry): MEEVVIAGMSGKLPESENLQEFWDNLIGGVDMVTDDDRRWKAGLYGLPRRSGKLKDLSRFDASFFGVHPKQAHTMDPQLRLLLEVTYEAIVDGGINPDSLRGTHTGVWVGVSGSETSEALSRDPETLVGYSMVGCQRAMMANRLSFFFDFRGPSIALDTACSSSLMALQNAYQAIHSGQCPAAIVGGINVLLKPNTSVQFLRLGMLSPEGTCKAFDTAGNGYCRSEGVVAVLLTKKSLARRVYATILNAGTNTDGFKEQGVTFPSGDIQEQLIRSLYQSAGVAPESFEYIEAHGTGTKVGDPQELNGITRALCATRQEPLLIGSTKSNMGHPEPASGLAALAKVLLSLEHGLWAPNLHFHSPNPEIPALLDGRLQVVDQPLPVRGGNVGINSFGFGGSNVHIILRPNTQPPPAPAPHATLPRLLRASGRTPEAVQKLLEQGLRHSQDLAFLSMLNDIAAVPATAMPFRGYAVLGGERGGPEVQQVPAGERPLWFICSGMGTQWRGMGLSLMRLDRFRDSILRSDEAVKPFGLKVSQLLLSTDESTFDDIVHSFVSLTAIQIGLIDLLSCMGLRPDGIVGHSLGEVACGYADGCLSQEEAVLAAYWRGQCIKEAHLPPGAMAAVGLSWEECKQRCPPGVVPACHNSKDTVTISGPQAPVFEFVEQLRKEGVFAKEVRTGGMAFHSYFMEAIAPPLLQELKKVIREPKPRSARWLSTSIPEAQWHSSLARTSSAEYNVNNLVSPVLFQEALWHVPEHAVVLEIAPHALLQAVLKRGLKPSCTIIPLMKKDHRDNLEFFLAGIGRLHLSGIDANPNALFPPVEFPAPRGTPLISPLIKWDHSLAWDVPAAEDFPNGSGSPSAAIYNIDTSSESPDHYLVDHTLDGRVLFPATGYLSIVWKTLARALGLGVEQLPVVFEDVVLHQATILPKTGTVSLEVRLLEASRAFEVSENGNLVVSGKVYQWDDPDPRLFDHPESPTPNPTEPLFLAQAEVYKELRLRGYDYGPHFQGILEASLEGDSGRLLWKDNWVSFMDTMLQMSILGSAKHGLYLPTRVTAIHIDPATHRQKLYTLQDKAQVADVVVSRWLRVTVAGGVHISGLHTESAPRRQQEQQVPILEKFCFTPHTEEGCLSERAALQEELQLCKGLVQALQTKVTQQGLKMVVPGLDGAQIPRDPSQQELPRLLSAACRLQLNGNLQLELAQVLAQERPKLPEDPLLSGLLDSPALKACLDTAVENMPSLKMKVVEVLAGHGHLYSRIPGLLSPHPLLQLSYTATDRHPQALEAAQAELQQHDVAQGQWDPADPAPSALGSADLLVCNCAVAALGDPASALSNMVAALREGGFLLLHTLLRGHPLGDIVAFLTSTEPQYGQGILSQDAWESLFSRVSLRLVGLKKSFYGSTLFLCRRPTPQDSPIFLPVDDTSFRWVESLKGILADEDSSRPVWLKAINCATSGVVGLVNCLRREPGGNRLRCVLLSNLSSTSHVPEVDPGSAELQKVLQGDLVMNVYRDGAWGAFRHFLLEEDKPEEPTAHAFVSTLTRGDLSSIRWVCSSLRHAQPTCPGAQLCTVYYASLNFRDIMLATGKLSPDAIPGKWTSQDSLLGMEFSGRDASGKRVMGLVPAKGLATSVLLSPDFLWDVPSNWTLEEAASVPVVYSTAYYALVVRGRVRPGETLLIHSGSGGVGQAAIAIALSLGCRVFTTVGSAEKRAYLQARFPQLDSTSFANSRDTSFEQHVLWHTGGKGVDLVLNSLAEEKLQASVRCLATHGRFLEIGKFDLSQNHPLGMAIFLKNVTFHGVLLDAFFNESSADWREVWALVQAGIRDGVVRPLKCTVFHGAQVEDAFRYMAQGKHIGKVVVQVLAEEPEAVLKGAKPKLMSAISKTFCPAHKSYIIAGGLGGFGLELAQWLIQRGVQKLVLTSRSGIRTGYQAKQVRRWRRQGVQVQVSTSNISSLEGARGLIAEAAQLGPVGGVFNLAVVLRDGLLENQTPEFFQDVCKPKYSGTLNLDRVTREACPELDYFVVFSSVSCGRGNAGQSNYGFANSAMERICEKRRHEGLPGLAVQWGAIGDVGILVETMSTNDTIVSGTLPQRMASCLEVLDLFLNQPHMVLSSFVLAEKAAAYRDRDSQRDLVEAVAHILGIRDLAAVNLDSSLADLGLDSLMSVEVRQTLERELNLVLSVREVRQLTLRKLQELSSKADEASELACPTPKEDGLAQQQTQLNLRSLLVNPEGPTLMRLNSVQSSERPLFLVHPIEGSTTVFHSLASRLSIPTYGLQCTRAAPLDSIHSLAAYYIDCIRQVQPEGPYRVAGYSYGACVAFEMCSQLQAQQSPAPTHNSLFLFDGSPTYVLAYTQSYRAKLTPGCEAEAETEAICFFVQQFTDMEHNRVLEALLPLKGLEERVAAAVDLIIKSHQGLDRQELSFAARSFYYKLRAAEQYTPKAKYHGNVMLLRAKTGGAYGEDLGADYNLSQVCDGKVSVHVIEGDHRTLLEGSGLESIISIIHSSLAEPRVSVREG
The experiment is described as follows: Fatty Acid Synthase (FASN) inhibition scintillation proximity assay. It is filed as biochemical. To be noted: for inhibition at 10 µM: read-out: Human FASN % inhibition @ 10 μM, 10 μM test compound. In short, it runs like this: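 Purified full-length hFASN (300 ng) converts ^3H-acetyl-CoA plus malonyl-CoA to ^3H-palmitate in 100 mM KH2PO4 pH 7.5, 1 mM DTT; compounds tested at 0.01–30 μM. Product captured on streptavidin imaging beads and read by LEADseeker at 610 nm after ≥24 h; 4-parameter logistic fit versus controls.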
(SPA uses beads or plates that emit light when radiolabelled molecules are held near them.)

Regarding `Cn1ncc2cc(-c3ccc(C4=NC5(CC5)C(=O)N4C[C@@H]4CCN(C(=O)C5CCO5)C4)cc3)ccc21` (stereo partly drawn) [compound 204, 5-(4-(1-methyl-1H-indazol-5-yl)phenyl)-6-(((3R)-1-(oxetane-2-carbonyl)pyrrolidin-3-yl)methyl)-4,6-diazaspiro[2.4]hept-4-en-7-one], the IC50 is 407 nM in experiment [1], 51.3 nM in experiment [2], approximately 40.7 nM with A2780 ovarian cells [3] and more than 10000 nM in the experiment with A2780 ovarian cells [4]. In experiment [5], the inhibition at 10 µM came to 103%.

Regarding `Cc1cc(-c2ccc3c(cnn3C)c2)ccc1C1=NC2(CC2)C(=O)N1CC1CN(C(=O)C2(C)CC2)C1` [compound 207, 5-(2-methyl-4-(1-methyl-1H-indazol-5-yl)phenyl)-6-((1-(1-methylcyclopropanecarbonyl)azetidin-3-yl)methyl)-4,6-diazaspiro[2.4]hept-4-en-7-one], the IC50 in experiment [1] is 513 nM; in experiment [2], approximately 67.6 nM; with A2780 ovarian cells [3], 60.3 nM; with A2780 ovarian cells [4] it was more than 10000 nM. Besides, in experiment [5], the inhibition at 10 µM came out at 101%.

For `Cc1cc(-c2ccc3cc(F)ccc3c2)ccc1C1=NC2(CC2)C(=O)N1CC1CN(C(=O)C2CCO2)C1` (stereo not drawn) [compound 223, 5-(4-(6-fluoronaphthalen-2-yl)-2-methylphenyl)-6-((1-(oxetan-2-carbonyl)azetidin-3-yl)methyl)-4,6-diazaspiro[2.4]hept-4-en-7-one], the IC50 is 240 nM in experiment [1]; 60.3 nM in experiment [2]; approximately 20 nM in the experiment on A2780 ovarian cells [3]; 3310 nM in the experiment with A2780 ovarian cells [4]; 53.7 nM in experiment [5] (read-out: Human FASN pIC50 (converted)). In addition, in experiment [5], the inhibition at 10 µM is 104%.

Turning to `O=C(C1CC1)N1CC(CN2C(=O)C3(CC3)N=C2c2ccc(-c3ccc4cc(F)ccc4n3)cc2F)C1` [compound 228, 6-((1-(cyclopropanecarbonyl)azetidin-3-yl)methyl)-5-(2-fluoro-4-(6-fluoroquinolin-2-yl)phenyl)-4,6-diazaspiro[2.4]hept-4-en-7-one], the IC50 is 759 nM in experiment [1], 97.7 nM in experiment [2], 18.2 nM in the experiment on A2780 ovarian cells [3] and more than 10000 nM in the experiment on A2780 ovarian cells [4]. Further, in experiment [5], the inhibition at 10 µM was found to be 103%.

For the molecule `Cc1cc(C2=NC3(CC3)C(=O)N2C[C@@H]2CCN(C(=O)C3CC3)C2)ccc1-c1ccc2cc[nH]c2c1` [compound 239, (R)-5-(4-(1H-indol-6-yl)-3-methylphenyl)-6-((1-(cyclopropanecarbonyl)pyrrolidin-3-yl)methyl)-4,6-diazaspiro[2.4]hept-4-en-7-one], the IC50 in experiment [1] was 813 nM; in experiment [2], 135 nM; with A2780 ovarian cells [3] it was 60.3 nM; with A2780 ovarian cells [4], more than 10000 nM. Further, in experiment [5], the inhibition at 10 µM turned out to be 96%.

Turning to `Cc1cc2cc(-c3ccc(C4=NC5(CC5)C(=O)N4C[C@@H]4CCN(C(=O)C5CC5)C4)cc3)ccc2o1` [compound 294, (R)-6-((1-(cyclopropanecarbonyl)pyrrolidin-3-yl)methyl)-5-(4-(2-methylbenzofuran-5-yl)phenyl)-4,6-diazaspiro[2.4]hept-4-en-7-one], the IC50 is 2040 nM in experiment [1], approximately 871 nM in experiment [2], approximately 1860 nM in the experiment on A2780 ovarian cells [3] and more than 10000 nM in the experiment with A2780 ovarian cells [4]. In experiment [5], the inhibition at 10 µM amounted to 100%.

In the case of `O=C(C1CC1)N1CC[C@@H](CN2C(=O)C3(CC3)N=C2c2ccc(-c3cccc4[nH]ncc34)cc2)C1` [compound 302], the IC50 in experiment [1] is 437 nM; in experiment [2], 16.6 nM; in the experiment with A2780 ovarian cells [3] it was 13.2 nM; in the experiment on A2780 ovarian cells [4] it was more than 10000 nM.

For the molecule `O=C(C1CC1)N1CC[C@@H](CN2C(=O)C3(CC3)N=C2c2ccc(-c3ccc4cccnc4c3)cc2)C1` [compound 309, (R)-6-((1-(cyclopropanecarbonyl)pyrrolidin-3-yl)methyl)-5-(4-(quinolin-7-yl)phenyl)-4,6-diazaspiro[2.4]hept-4-en-7-one], the IC50 in experiment [1] is 31.6 nM; in experiment [2] it was 7.41 nM; with A2780 ovarian cells [3], 6.17 nM; with A2780 ovarian cells [4], more than 10000 nM.

As for `O=C(C1CC1)N1CC[C@H](CN2C(=O)C3(CC3)N=C2c2ccc(-c3ccc4occc4c3)cc2)C1` [compound 409, 5-[4-(1-Benzofuran-5-yl)phenyl]-6-{[(3S)-1-(cyclopropylcarbonyl)pyrrolidin-3-yl]methyl}-4,6-diazaspiro[2.4]hept-4-en-7-one], the IC50 is 2190 nM in experiment [1], 1170 nM in experiment [2], 2090 nM in the experiment with A2780 ovarian cells [3] and more than 10000 nM in the experiment with A2780 ovarian cells [4].

`Cn1ncc2cc(-c3ccc(C4=NC5(CC5)C(=O)N4C[C@H]4CCN(C(=O)C5CC5)C4)cc3)ccc21` [compound 410, 6-{[(3S)-1-(Cyclopropylcarbonyl)pyrrolidin-3-yl]methyl}-5-[4-(1-methyl-1H-indazol-5-yl)phenyl]-4,6-diazaspiro[2.4]hept-4-en-7-one]: the IC50 was 977 nM in experiment [1], 447 nM in experiment [2], 537 nM in the experiment on A2780 ovarian cells [3] and more than 10000 nM in the experiment with A2780 ovarian cells [4].

`Cc1cc(C2=NC3(CC3)C(=O)N2C[C@@H]2CCN(C(=O)C3CC3)C2)ccc1-c1ccc2c(cnn2C)c1` [compound 450, 6-{[(3R)-1-(Cyclopropylcarbonyl)pyrrolidin-3-yl]methyl}-5-[3-methyl-4-(1-methyl-1H-indazol-5-yl)phenyl]-4,6-diazaspiro[2.4]hept-4-en-7-one]: the IC50 in experiment [1] is 2340 nM; in experiment [2], 794 nM; in the experiment on A2780 ovarian cells [3] it was approximately 617 nM; with A2780 ovarian cells [4], more than 10000 nM.

On to `O=C(C1CC1)N1CC[C@@H](CN2C(=O)C3(CC3)N=C2c2ccc(-c3ccc4ncccc4c3)cc2)C1` [compound 455, 6-{[(3R)-1-(Cyclopropylcarbonyl)pyrrolidin-3-yl]methyl}-5-(4-quinolin-6-ylphenyl)-4,6-diazaspiro[2.4]hept-4-en-7-one], for which the IC50 in experiment [1] is 2140 nM; in experiment [2], approximately 692 nM; with A2780 ovarian cells [3] it was approximately 891 nM; with A2780 ovarian cells [4] it was more than 10000 nM.

For the molecule `Nc1nccc2cc(-c3ccc(C4=NC5(CC5)C(=O)N4C[C@@H]4CCN(C(=O)C5CC5)C4)cc3)ccc12` [compound 469, 5-[4-(1-Aminoisoquinolin-6-yl)phenyl]-6-{[(3R)-1-(cyclopropylcarbonyl)pyrrolidin-3-yl]methyl}-4,6-diazaspiro[2.4]hept-4-en-7-one], the IC50 in experiment [1] is 288 nM; in experiment [2], 58.9 nM; in the experiment on A2780 ovarian cells [3], 74.1 nM; with A2780 ovarian cells [4], more than 10000 nM. The inhibition at 10 µM in experiment [5] came to 97%.

Take `O=C(C1CC1)N1CC[C@@H](CN2C(=O)C3(CC3)N=C2c2ccc(-c3cnc4ccccc4c3)cc2)C1` [compound 474, 6-{[(3R)-1-(Cyclopropylcarbonyl)pyrrolidin-3-yl]methyl}-5-(4-quinolin-3-ylphenyl)-4,6-diazaspiro[2.4]hept-4-en-7-one]: the IC50 is 1000 nM in experiment [1], 708 nM in experiment [2], 200 nM with A2780 ovarian cells [3] and more than 10000 nM in the experiment with A2780 ovarian cells [4].

As for `Cc1cc(-c2ccc3c(cnn3C)c2)ccc1C1=NC2(CC2)C(=O)N1CC1CN(C(=O)C2CCC2)C1` [compound 489], the IC50 is 708 nM in experiment [1], approximately 251 nM in experiment [2], 148 nM in the experiment on A2780 ovarian cells [3] and more than 10000 nM in the experiment with A2780 ovarian cells [4]. In addition, in experiment [5], the inhibition at 10 µM turned out to be 97%.

With `Cc1c(-c2ccc(C3=NC4(CC4)C(=O)N3CC3CN(C(=O)C4CC4)C3)cc2)ccc2c1cnn2C` [compound 491, 6-{[1-(Cyclopropylcarbonyl)azetidin-3-yl]methyl}-5-[4-(1,4-dimethyl-1H-indazol-5-yl)phenyl]-4,6-diazaspiro[2.4]hept-4-en-7-one], the IC50 in experiment [1] is 1000 nM; in experiment [2] it was approximately 178 nM; with A2780 ovarian cells [3], 72.4 nM; with A2780 ovarian cells [4], more than 10000 nM. For the same molecule, the inhibition at 10 µM in experiment [5] came out at 100%.

Turning to `O=C(C1CC1)N1CC[C@@H](CN2C(=O)C3(CC3)N=C2c2ccc(-c3n[nH]c4ccccc34)cc2)C1` [compound 528, 6-{[(3R)-1-(Cyclopropylcarbonyl)pyrrolidin-3-yl]methyl}-5-[4-(1H-indazol-3-yl)phenyl]-4,6-diazaspiro[2.4]hept-4-en-7-one], the IC50 in experiment [1] is 2340 nM; in experiment [2] it was 501 nM; in the experiment on A2780 ovarian cells [3] it was approximately 398 nM; in the experiment with A2780 ovarian cells [4], more than 10000 nM.

As a reminder, the inhibition is the change of the read-out against control, counted positive when it falls.
